Patent US20120046251A1, “INHIBITORS OF SOLUBLE EPOXIDE HYDROLASE TO INHIBIT OR PREVENT NIACIN-INDUCED FLUSHING” (The Regents of the University of California, priority 2009, published 2012)

Key:
[1] = tested on: COX-2 / COX-1; conditions: cited from earlier work
[2] = tested on: C57BL/6 mice; assay: Niacin-induced flushing: laser Doppler ear blood flow in anesthetized mice; format: in vivo, mouse; conditions: for peak ear tissue perfusion after niacin (composite, FIG. 9): i.p. 30 minutes before niacin 30 mg/kg, TPAU 0.01-1 mg/kg, others 4 mg/kg
Method: For the experiments, mice were anesthetized using Nembutal (50 mg/kg) given by intraperitoneal (I.P.) injection. […]
Laser Doppler ear blood flow: The change in ear flow was measured using a laser doppler flowmeter (BLF 21, on loan from Transonic Systems, Inc., Ithaca, N.Y.). […] The laser doppler probe was fitted with a sleeve of 2 mm length plastic tubing and attached to a micromanipulator to standardize the depth of the tissue being measured. Blood flow was measured at 30 second intervals before and during exposure to compounds. Baseline blood flow was established by the average of measurements over 5 min prior to injection of drug or vehicle. Data were analyzed as a fraction of baseline.
Mice were anesthetized with Nembutal™ (50 mg/kg) and ear cutaneous perfusion was measured as explained above. Animals were then injected with a niacin solution (30 mg/kg, in physiological saline) and response (% tissue perfusion) after 3 minutes measured.

[3] = Metabolic stability, method not given; format: in vitro ADME
Text: (§1) (Both the 1- and the 2-adamantyl ureas have been tested and have about the same high activity as an inhibitor of sEH.) Thus, isomers of adamantyl dodecyl urea are preferred inhibitors. It is further expected that N,N′-dodecyl-cyclohexyl urea (DCU), and other inhibitors of sEH, and particularly dodecanoic acid ester derivatives of urea, are suitable for use in the methods of the invention.

[4] = molecular target: T1, sEH (Homo sapiens, UniProt P34913); assay: sEH inhibition, assay not specified; format: biochemical
T1 sequence (P34913 1-555): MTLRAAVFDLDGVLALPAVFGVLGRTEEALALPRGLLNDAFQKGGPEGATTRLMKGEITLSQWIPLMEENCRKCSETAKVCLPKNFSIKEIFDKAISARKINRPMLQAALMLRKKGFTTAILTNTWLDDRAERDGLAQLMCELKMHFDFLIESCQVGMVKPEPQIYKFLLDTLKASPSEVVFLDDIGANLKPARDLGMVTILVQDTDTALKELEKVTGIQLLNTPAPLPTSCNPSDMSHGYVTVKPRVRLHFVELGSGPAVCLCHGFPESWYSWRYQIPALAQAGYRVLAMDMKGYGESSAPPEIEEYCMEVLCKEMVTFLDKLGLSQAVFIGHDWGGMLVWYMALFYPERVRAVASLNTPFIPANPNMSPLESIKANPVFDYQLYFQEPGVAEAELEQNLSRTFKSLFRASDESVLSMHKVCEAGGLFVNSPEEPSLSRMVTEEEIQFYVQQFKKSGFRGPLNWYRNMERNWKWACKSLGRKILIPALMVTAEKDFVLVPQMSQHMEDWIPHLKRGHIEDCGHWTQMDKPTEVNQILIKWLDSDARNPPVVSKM
Text: as §1

[5] = 325 mg of aspirin, Dunn et al 1995; cited from earlier work
[6] = tested on: C57BL/6 mice; assay: PGD2-induced vasodilation/flushing, ear perfusion in mice; format: in vivo, mouse
Method: Mouse Model: C57BL/6 mice were obtained from Charles River Laboratories (location). sEHi knockout mice were generated at UC Davis using the C57BL/6 background [EnayetAllah, et al., J Biol. Chem. (2008) 283(52):36592-8]. For the experiments, mice were anesthetized using Nembutal (50 mg/kg) given by intraperitoneal (I.P.) injection. […]
Laser Doppler ear blood flow: The change in ear flow was measured using a laser doppler flowmeter (BLF 21, on loan from Transonic Systems, Inc., Ithaca, N.Y.). As described by Cheng et al [Proc Natl Acad Sci (2006) 103(17):6682-7] the flow probe was placed against the ventral aspect of the right ear of the anesthetized mouse. The laser doppler probe was fitted with a sleeve of 2 mm length plastic tubing and attached to a micromanipulator to standardize the depth of the tissue being measured. Blood flow was measured at 30 second intervals before and during exposure to compounds. Baseline blood flow was established by the average of measurements over 5 min prior to injection of drug or vehicle. Data were analyzed as a fraction of baseline.

[7] = tested on: C57BL/6 mice; assay: Eicosanoid analysis by LC-MS in ear tissue of mice given niacin +/- sEHi; format: in vivo, mouse; conditions: for products of the 5-lipoxygenase pathway in ear tissue: niacin 30 mg/kg subcutaneously, TPAU 3 mg/kg pre-treatment, FIG. 10
Method: Samples were spiked with a suite of odd chain length analogs (surrogates) then solvent extracted and partially purified by passing through a solid phase (SP) extraction column using Oasis HLB cartridges. The loaded column was washed with 2 mL 2.5 mM H2PO4+10% methanol and dried under vacuum. Target analytes were eluted with 2 mL of ethyl acetate. The collected extracts were evaporated to dryness under nitrogen, re-dissolved in a final volume of 100 μL with methanol containing deuterated isomers of internal standards including prostaglandins, thromboxanes, epoxides, diols, of arachidonic acid, which allows accurate surrogate recovery calculations and stored at −20° C. until analysis. A 10-20 μL aliquot of each sample was separated by reversed phase HPLC chromatography on a 150 mm×2 mm I.D. 5 μm particle size C18 column using a gradient of water-0.1% acetic acid and 89:11 acetonitrile/methanol (v/v)-0.1% acetic acid. […] The system was calibrated with a minimum of five calibration solutions containing analytical targets at concentrations ranging from 1 to 1000 nM. The analysis of each sample was repeated three times. Calibration check solutions were analyzed at a minimum frequency of 10 hours to ensure stability of the analytical calibration throughout a given analysis.
As the flushing effect of niacin is essentially local rather than systemic, the effect of niacin +/−sEHi on ear tissue prostaglandins were also examined by LC-MS.
Products of the 5-lipoxygenase pathway are generally considered pro-inflammatory.

[8] = tested on: C57BL/6 mice; assay: Eicosanoid analysis by LC-MS/MS in plasma/serum of mice given niacin +/- sEHi; format: in vivo, mouse
[9] = molecular target: T2, recombinant murine sEH (Mus musculus, UniProt P34914); assay: Inhibition of recombinant murine sEH; format: biochemical
T2 sequence (P34914 1-554): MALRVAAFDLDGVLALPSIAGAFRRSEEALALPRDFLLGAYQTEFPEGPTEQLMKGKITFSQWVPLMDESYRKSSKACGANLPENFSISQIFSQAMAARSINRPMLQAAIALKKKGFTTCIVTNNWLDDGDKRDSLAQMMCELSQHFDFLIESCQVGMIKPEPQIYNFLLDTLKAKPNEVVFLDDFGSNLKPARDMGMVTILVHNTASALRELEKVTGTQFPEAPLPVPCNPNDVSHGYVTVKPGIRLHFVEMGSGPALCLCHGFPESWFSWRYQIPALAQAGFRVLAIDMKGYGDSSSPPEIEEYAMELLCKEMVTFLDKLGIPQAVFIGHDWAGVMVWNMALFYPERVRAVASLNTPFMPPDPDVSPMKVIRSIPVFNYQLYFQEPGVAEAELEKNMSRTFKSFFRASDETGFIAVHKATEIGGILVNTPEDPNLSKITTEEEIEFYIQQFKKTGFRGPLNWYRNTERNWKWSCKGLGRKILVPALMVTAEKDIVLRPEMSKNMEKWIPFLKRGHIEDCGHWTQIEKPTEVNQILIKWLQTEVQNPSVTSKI

[10] = tested on: mouse ear; assay: Capsaicin applied to the mouse ear: tissue perfusion; format: in vivo
Text: Tachyphylaxis to the flushing effect of niacin is well known, although the mechanism has not been elucidated. […] Tachyphylaxis to the vasodilatory effect of capsaicin is likely mediated by repetitive activation of transient receptor potential channels, in particular TRPV1, with resultant desensitization and internalization. See, Fan et al., J Biol Chem (2009) 284:27884-91; Myers, et al., Neuron (2007) 54:847-50. […] Subsequently, mice were exposed to capsaicin daily for 3 days (treated topically, 4 times per day), resulting in abolition of the acute vasodilatory response (i.e. tachyphylaxis to capsaicin). […] Although the exact sequence of events following niacin exposure is not clear it seems that niacin activates a number of targets simultaneously.

[11] = molecular target: T1, sEH; assay: Inhibition of recombinant human sEH; format: biochemical
[12] = niacin 30 mg/kg, wild type mice, FIG. 6

COc1ccc2c(c1)c(CC(=O)O)c(C)n2C(=O)c1ccc(Cl)cc1 [indomethacin]
COX-2 (IC50)/COX-1 (IC50) ratio [1]: 33

CNC(=O)c1cc(Oc2ccc(NC(=O)Nc3ccc(Cl)c(C(F)(F)F)c3)cc2)ccn1 [sorafenib]
peak ear tissue perfusion after niacin (composite, FIG. 9) [2]: significantly reduced peak ear tissue perfusion

CCCCCCCCCCCCNC(=O)NC12CC3CC(CC(C3)C1)C2 [ADU, N-Adamantyl-N′-dodecyl urea]
metabolic stability [3]: metabolically stable
activity on sEH [4]: particularly high activity on sEH

CC(=O)Oc1ccccc1C(=O)O [aspirin]
COX-2 (IC50)/COX-1 (IC50) ratio [1]: 0.32
effectiveness against niacin flushing [5]: more effective than 165 mg of aspirin or 200 mg ibuprofen
peak ear tissue perfusion after niacin (composite, FIG. 9) [2]: significantly reduced peak ear tissue perfusion

CC(C)(C)c1ccc(/C=C/C(=O)Nc2ccc3c(c2)OCCO3)cc1 [AMG9810]
flushing response to PGD2 ([6]; AMG9810 10 mg/kg IP, FIG. 12): blunted the biologic response to PGD2
flushing response to niacin ([2]; AMG9810 10 mg/kg IP, in the animal tested): abolished the flushing response to niacin

O=C(NC1CCN(C(=O)C(F)(F)F)CC1)NC12CC3CC(CC(C3)C1)C2 [TPAU, N-(1-(2,2,2-trifluoroethanoyl)piperidin-4-yl)-N′-(adamant-1-yl)urea]
PGD2-induced increase in perfusion ([6]; TPAU pretreatment at a concentration sufficient to inhibit niacin-induced perfusion increase, FIG. 4): did not limit the increase in perfusion with administration of PGD2
products of the 5-lipoxygenase pathway in ear tissue [7]: limited or abrogated niacin-induced increases in products of the 5-lipoxygenase pathway
PGD2 levels with niacin + sEHi ([8]; TPAU 3 mg/kg, FIG. 5): did not result in the expected reduction in PGD2
niacin-induced reduction of plasma EETs and ratio EETs/DHETs ([8]; sEHi TPAU 3 mg/kg, niacin 30 mg/kg, FIG. 1-3): counters this reduction in EETs
peak perfusion after niacin ([2]; TPAU 0.05 mg/kg to 1 mg/kg, FIG. 8): significant reduction in peak perfusion
flushing (% tissue perfusion 3 minutes after niacin) ([2]; TPAU 0.01 to 1 mg/kg, 1 hour prior to niacin 30 mg/kg, n=4-6): dose-dependently reduced flushing
peak ear tissue perfusion after niacin (composite, FIG. 9) [2]: significantly reduced peak ear tissue perfusion
dose giving total inhibition of flushing ([2]; mice, niacin 30 mg/kg): 0.3 mg/kg
Ki50 for inhibition of niacin-induced flushing ([2]; mice, niacin 30 mg/kg, TPAU pre-treatment): approximately 0.01 mg/kg

COc1cc(CNC(=O)CCCC/C=C/C(C)C)ccc1O [capsaicin]
IC50 [9]: 1500 nM
vasodilatory response to niacin after capsaicin tachyphylaxis ([2]; capsaicin topically 4 times per day for 3 days, FIG. 11): blunted vasodilatory response
flushing response to niacin after capsaicin tachyphylaxis plus acute topical capsaicin ([2]; repeated capsaicin then acute topical capsaicin prior to niacin injection): abolished
ear tissue perfusion after topical capsaicin [10]: time-dependent increase in tissue perfusion
IC50 [11]: 1500 nM

O=C(O)c1cccnc1 [niacin, pyridine-3-carboxylic acid]
ear tissue PGD2 level ([7]; LC-MS, unit not given): 33214
products of the 5-lipoxygenase pathway in ear tissue [7]: increased products of the 5-lipoxygenase pathway
increase of ear tissue PGD2 ([7]; niacin vs control, P=0.09): 21%
plasma levels of EETs (total EETs or ratio EETs/DHETs) ([8]; niacin 30 mg/kg subcutaneous alone): reduced plasma levels of EETs
PGE2 levels in serum ([8]; niacin alone): without altering PGE2 levels
increase of PGD2 levels in serum ([8]; niacin alone): approximately 100%
increase in ear perfusion [2, 12]: ~400%
time of peak ear perfusion after injection [2, 12]: approximately 4 minutes
